# Results reported in paper PMC8748766, “The catalytic activity of TCPTP is auto-regulated by its intrinsically disordered tail and activated by Integrin alpha-1” (Nature Communications, 2022).
# Tests used:
# TCPTPCAT [1] = biological target: T1, TCPTPCAT (Homo sapiens, UniProt P17706); assay: Kinetics of TCPTPCAT with saturating ITGA1 peptide, pEGFR peptide-1 substrate; assay type: biochemical; settings: TCPTPCAT saturated with ITGA1 peptide (ITGA1_TR 1 μM), mean ± SE, n = 9
# T1 construct: TCPTP and TCPTPCAT (residue 1–314) against 2 phosphotyrosine peptides derived from EGFR; His6 (N, cleaved yes); made in house; host or cells: E. coli BL21 (DE3) RIL
# T1 sequence (P17706 1-314 isoform P17706-2): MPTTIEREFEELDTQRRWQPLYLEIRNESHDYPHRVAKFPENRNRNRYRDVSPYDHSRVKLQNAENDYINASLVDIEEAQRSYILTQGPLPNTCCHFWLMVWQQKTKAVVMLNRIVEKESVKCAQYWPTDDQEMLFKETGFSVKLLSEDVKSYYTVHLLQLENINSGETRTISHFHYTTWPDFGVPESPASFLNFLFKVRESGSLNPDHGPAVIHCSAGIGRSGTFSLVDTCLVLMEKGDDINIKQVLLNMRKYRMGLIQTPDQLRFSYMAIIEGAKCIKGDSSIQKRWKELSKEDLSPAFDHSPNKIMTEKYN
# Excerpt: (§1) Polymerase chain reaction (PCR) fragments of TCPTP (residues: 1–387) TCPTPCAT (catalytic domain, residues: 1–288, 1–302 or 1–314), TCPTPTail (C-terminal tail, residues: 289–387 or 303–387) were amplified from full-length human TCPTP (TC45 isoform). TCPTP, TCPTPCAT (residues: 1–288, 1–314), and TCPTPTail (residues: 289–387) fragments were cloned into pMCSG7 including a N-terminal His6-tag using ligation-independent cloning. For all NMR experiments, the PCR fragments of TCPTP, TCPTPCAT (residues: 1–302) and TCPTPTail (residue: 303–387) were sub-cloned into pRP1B as previously described.
# (§2) The rate of dephosphorylation of TCPTP and TCPTPCAT (residue 1–314) against 2 phosphotyrosine peptides derived from EGFR was monitored either with or without ITGA1 peptide (ITGA1_FCT & ITGA1_TR) in assay buffer (25 mM Hepes pH 7.4, 50 mM NaCl and 1 mM DTT). Lyophilized powder of all synthetic peptides was dissolved in assay buffer without DTT (phosphopeptides, 5 mM; ITGA1 peptides, 2 mM). For the kinetic analysis, the concentration of the enzyme was fixed at 1 nM while the substrate (phosphopeptides) concentration was varied from 2.5 μM to 160 μM in a total reaction volume of 200 μl. Effect of ITGA1 peptide on TCPTP & TCPTPCAT kinetics were assessed in saturated condition by adding an excess amount of ITGA1 peptide to the reaction mixture (ITGA1_TR = 1 μM; ITGA1_FCT = 25 μM). The reaction was incubated at 30 °C for 30 min and stopped by the addition of 30 μl phosphate reagent (phosphate colorimetric assay kit; Bio Vision) following the manufacturer’s instructions. Data were normalized and fitted using a nonlinear curve, and kinetics parameters (KM and kcat) were calculated from the Michaelis-Menten equation using Graph Pad Prism 9.0. All data points in the enzyme kinetics experiment were measured in triplicate, and the experiments were repeated three times.
# TCPTP [2] = biological target: T2, TCPTP (Homo sapiens, UniProt P17706); assay: Kinetics of TCPTP with saturating ITGA1 peptide, pEGFR peptide-1 substrate; assay type: biochemical; settings: TCPTP saturated with ITGA1 peptide (ITGA1_TR 1 μM; ITGA1_FCT 25 μM), mean ± SE, n = 9
# T2 construct: fragments of TCPTP (residues: 1–387); His6 (N, cleaved yes); made in house; host or cells: E. coli BL21 (DE3) RIL
# T2 sequence (P17706 1-387 isoform P17706-2): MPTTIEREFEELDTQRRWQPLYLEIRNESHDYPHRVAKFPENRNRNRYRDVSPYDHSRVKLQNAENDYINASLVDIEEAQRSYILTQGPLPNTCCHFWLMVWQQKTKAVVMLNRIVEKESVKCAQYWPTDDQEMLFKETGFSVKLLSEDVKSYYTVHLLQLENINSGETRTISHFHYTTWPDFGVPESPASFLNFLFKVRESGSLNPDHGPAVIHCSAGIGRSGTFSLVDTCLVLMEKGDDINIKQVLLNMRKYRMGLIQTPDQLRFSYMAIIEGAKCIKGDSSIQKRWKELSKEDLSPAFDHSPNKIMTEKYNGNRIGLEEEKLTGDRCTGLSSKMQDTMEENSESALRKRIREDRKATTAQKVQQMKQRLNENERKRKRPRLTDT
# Excerpt: as §1, §2
# TCPTPCAT [3] = biological target: T1, TCPTPCAT; assay: NMR titration (2D HSQC/TROSY) binding to TCPTPCAT; settings: 2D [1H,15N] TROSY, unlabeled ligand added
# Excerpt: as §1
# NMR data were collected on either Bruker NEO 600 MHz or 800 MHz spectrometers equipped with TCI HCN z-gradient cryoprobes at 298 K or 283 K. NMR measurements of TCPTP’s variant construct were recorded using (^1H,^15N)-, (^2H,^15N)-, (^1H,^15N,^13C), or (^2H,^15N,^13C)-labeled protein at a final concentration of 0.6 mM for backbone assignment or 0.1 mM for titration in NMR buffer and 90% H2O/10% D2O. The sequence-specific backbone assignments of TCPTP (residues 1–387), TCPTPCAT (residues 1–302), TCPTPTail (residues 303–387) and other variants were achieved using 3D triple resonance experiments including […], 3D HNCA, 3D HN(CO)CA, 3D HN(CO)CACB, and 3D HNCACB either as HSQC or TROSY variations. All NMR data were processed using TopSpin 4.0.5[44] and analyzed using either CARA (http://www.cara.nmr.ch) and/or CcpNMR[45].
# TCPTP [4] = biological target: T2, TCPTP; assay: Kinetics of TCPTP with saturating ITGA1 peptide, pEGFR peptide-2 substrate; assay type: biochemical; settings: TCPTP saturated with ITGA1 peptide (ITGA1_TR 1 μM; ITGA1_FCT 25 μM), mean ± SE, n = 9
# Excerpt: as §1, §2
# TCPTPCAT [5] = biological target: T1, TCPTPCAT; assay: Kinetics of TCPTPCAT with saturating ITGA1 peptide, pEGFR peptide-2 substrate; assay type: biochemical; settings: TCPTPCAT saturated with ITGA1 peptide (ITGA1_TR 1 μM), mean ± SE, n = 9
# Excerpt: as §1, §2
# [6] = pEGFR peptide-1, 1 nM enzyme, pH 7.4, 30 °C 30 min
# [7] = pEGFR peptide-2, pH 7.4, 30 °C 30 min
sequence,measurement,setting,value
"RPLKKKMEKRPLKKKMEK [ITGA1_TR, ITGA1 tandem repeat (2x ITGA1_TCT): …]",kcat,TCPTPCAT [1]; [6],31.1 ± 0.7 s⁻¹
same,Km,"TCPTPCAT [1]; pEGFR peptide-1, pH 7.4, 30 °C",23 ± 1.6 µM
same,kcat/Km,TCPTPCAT [1]; pEGFR peptide-1,1.3e+06 ± 100000 M⁻¹ s⁻¹
same,kcat,TCPTP [2]; [6],26.2 ± 0.6 s⁻¹
same,Km,"TCPTP [2]; pEGFR peptide-1, pH 7.4, 30 °C",15.9 ± 1.3 µM
same,kcat/Km,TCPTP [2]; pEGFR peptide-1,1.6e+06 ± 100000 M⁻¹ s⁻¹
same,"NMR titration: CSPs in (2H,15N)-labeled TCPTPCAT",TCPTPCAT [3],significant CSPs in the same residues
same,kcat,TCPTP [4]; [7],34.7 ± 2.3 s⁻¹
same,Km,TCPTP [4]; pEGFR peptide-2,40.9 ± 6.8 µM
same,kcat/Km,TCPTP [4]; pEGFR peptide-2,0.8 ± 0.1 µM -1s-1
same,kcat,TCPTPCAT [5]; [7],35.6 ± 0.6 s⁻¹
same,Km,TCPTPCAT [5]; pEGFR peptide-2,28.3 ± 1.3 µM
same,kcat/Km,TCPTPCAT [5]; pEGFR peptide-2,1.2 ± 0.1 µM -1s-1
